Results published in patent publication US10611762B2, “Crystalline forms of a FGFR inhibitor and processes for preparing the same” (Incyte Corporation, priority 2017, dated 2020).
In brackets after ≈: the same amount, converted by molar mass. Blank lines part the entries; values can stand above or below the molecule they belong to.

Key:
Type in all cases: physicochemical
[1] = Solubility measurement in various solvents at 50 ± 1° C. (Procedure 2)
Description: (§1) The solubility of the Compound 1 Form I was measured according to Procedure 1 for solubility in 23±1° C. (Table 13) and Procedure 2 for 50±1° C.

[2] = Solubility measurement in various solvents at 23 ± 1° C. (Procedure 1)
Description: as §1

[3] = Competitive slurry experiments (stability relationship of Compound 1 forms); details: in acetone/water (2:1) and acetone/water (1:1), 23-25° C.
Description: To evaluate the transformation of Compound 1 solid forms, competitive slurry experiments in production crystallization solvents at 23-25° C. were performed with a mixture of […] polymorphs (Form I through Form XI) according to the procedures in Table 25 (acetone/water 2:1) and Table 26 (acetone/water 1:1).

solubility ([1]; 1,4-dioxane, 50 °C, organic solvent or mixture, thermodynamic from solid, 1,4-Dioxane, read-out: Solubility at 50 ± 1° C.): 37800 µg/mL (≈ 88 mM)
solubility ([2]; 1,4-dioxane, 23 °C, organic solvent or mixture, thermodynamic from solid, 1,4-Dioxane, read-out: Solubility at 23 ± 1° C.): 3020 µg/mL (≈ 7.03 mM)
Structure (SMILES): C=CC(=O)NCc1cc2c(cn1)CN(c1c(F)c(OC)cc(OC)c1F)C(=O)C21CC1 [Form III]

solubility ([1]; 1-Propanol, 50 °C, organic solvent or mixture, thermodynamic from solid, 1-Propanol, read-out: Solubility at 50 ± 1° C.): 2890 µg/mL (≈ 6.73 mM)
solubility ([1]; 2-methoxyethanol, 50 °C, organic solvent or mixture, thermodynamic from solid, 2-Methoxyethanol, read-out: Solubility at 50 ± 1° C.): 36600 µg/mL (≈ 85.3 mM)
solubility ([1]; 50 °C, organic solvent or mixture, thermodynamic from solid, at 50° C. in DMSO, DMF, DCM/MeOH (1:1), THF/water (4:1), acetone/water (4:1) and chloroform, read-out: Solubility (completely soluble)): > 50000 µg/mL
solubility ([1]; 50 °C, organic solvent or mixture, thermodynamic from solid, at 50° C. in heptane, hexane, toluene, MTBE, isobutyl acetate, IPAc, water, and acetone water (1:4), read-out: Solubility (insoluble)): < 1000 µg/mL
solubility ([1]; Acetone/water (1:1), 50 °C, aqueous with cosolvent or surfactant or cyclodextrin, thermodynamic from solid, Acetone/water (1:1), read-out: Solubility at 50 ± 1° C.): 12600 µg/mL (≈ 29.4 mM)
solubility ([1]; Acetone/water (1:2), 50 °C, aqueous with cosolvent or surfactant or cyclodextrin, thermodynamic from solid, Acetone/water (1:2), read-out: Solubility at 50 ± 1° C.): 3530 µg/mL (≈ 8.22 mM)
solubility ([1]; Acetone/water (1:4), 50 °C, aqueous with cosolvent or surfactant or cyclodextrin, thermodynamic from solid, Acetone/water (1:4), read-out: Solubility at 50 ± 1° C.): 570 µg/mL (≈ 1.33 mM)
solubility ([1]; Acetone/water (2:1), 50 °C, aqueous with cosolvent or surfactant or cyclodextrin, thermodynamic from solid, Acetone/water (2:1), read-out: Solubility at 50 ± 1° C.): 47000 µg/mL (≈ 109 mM)
solubility ([1]; Acetone/water (4:1), 50 °C, aqueous with cosolvent or surfactant or cyclodextrin, thermodynamic from solid, Acetone/water (4:1), read-out: Solubility at 50 ± 1° C.): > 50000 µg/mL
solubility ([1]; DCM/MeOH (1:1), 50 °C, organic solvent or mixture, thermodynamic from solid, DCM/MeOH (1:1), read-out: Solubility at 50 ± 1° C.): > 50000 µg/mL
solubility ([1]; DMF, 50 °C, organic solvent or mixture, thermodynamic from solid, DMF, read-out: Solubility at 50 ± 1° C.): > 50000 µg/mL
solubility ([1]; DMSO, 50 °C, organic solvent or mixture, thermodynamic from solid, DMSO, read-out: Solubility at 50 ± 1° C.): > 50000 µg/mL
solubility ([1]; EtOAc, 50 °C, organic solvent or mixture, thermodynamic from solid, EtOAc, read-out: Solubility at 50 ± 1° C.): 2710 µg/mL (≈ 6.31 mM)
solubility ([1]; EtOH, 50 °C, organic solvent or mixture, thermodynamic from solid, EtOH, read-out: Solubility at 50 ± 1° C.): 8560 µg/mL (≈ 19.9 mM)
solubility ([1]; IPA, 50 °C, organic solvent or mixture, thermodynamic from solid, IPA, read-out: Solubility at 50 ± 1° C.): 2220 µg/mL (≈ 5.17 mM)
solubility ([1]; IPAc, 50 °C, organic solvent or mixture, thermodynamic from solid, IPAc, read-out: Solubility at 50 ± 1° C.): 980 µg/mL (≈ 2.28 mM)
solubility ([1]; MEK, 50 °C, organic solvent or mixture, thermodynamic from solid, MEK, read-out: Solubility at 50 ± 1° C.): 3730 µg/mL (≈ 8.69 mM)
solubility ([1]; MIBK, 50 °C, organic solvent or mixture, thermodynamic from solid, MIBK, read-out: Solubility at 50 ± 1° C.): 2950 µg/mL (≈ 6.87 mM)
solubility ([1]; MeCN, 50 °C, organic solvent or mixture, thermodynamic from solid, MeCN, read-out: Solubility at 50 ± 1° C.): 11600 µg/mL (≈ 26.9 mM)
solubility ([1]; THF, 50 °C, organic solvent or mixture, thermodynamic from solid, THF, read-out: Solubility at 50 ± 1° C.): 11300 µg/mL (≈ 26.3 mM)
solubility ([1]; THF/water (4:1), 50 °C, organic solvent or mixture, thermodynamic from solid, THF/water (4:1), read-out: Solubility at 50 ± 1° C.): > 50000 µg/mL
solubility ([1]; acetone, 50 °C, organic solvent or mixture, thermodynamic from solid, Acetone, read-out: Solubility at 50 ± 1° C.): 15500 µg/mL (≈ 36.1 mM)
solubility ([1]; ethyl formate, 50 °C, organic solvent or mixture, thermodynamic from solid, Ethyl formate, read-out: Solubility at 50 ± 1° C.): 6580 µg/mL (≈ 15.3 mM)
solubility ([1]; hexane, 50 °C, organic solvent or mixture, thermodynamic from solid, Hexane, read-out: Solubility at 50 ± 1° C.): 60 µg/mL (≈ 0.14 mM)
solubility ([1]; isobutyl acetate, 50 °C, organic solvent or mixture, thermodynamic from solid, Isobutyl acetate, read-out: Solubility at 50 ± 1° C.): 750 µg/mL (≈ 1.75 mM)
solubility ([1]; methanol, 50 °C, organic solvent or mixture, thermodynamic from solid, Methanol, read-out: Solubility at 50 ± 1° C.): 17900 µg/mL (≈ 41.6 mM)
solubility ([1]; n-BuOH, 50 °C, organic solvent or mixture, thermodynamic from solid, n-BuOH, read-out: Solubility at 50 ± 1° C.): 6200 µg/mL (≈ 14.4 mM)
solubility ([1]; organic solvent or mixture, thermodynamic from solid, at 50° C. in MeCN, 1,4-dioxane, MeOH, 2-methoxyethanol, THF, acetone, n-BuOH, EtOH, ethyl formate, 1-propanol, MEK, acetone water (2:1), acetone water (1:1), MIBK, EtOAc, IPA, and acetone water (1:2), read-out: Solubility (slightly soluble)): 1000 to 50000 µg/mL (≈ 2.33 to 116 mM)
solubility ([1]; water, 50 °C, water, thermodynamic from solid, Water, read-out: Solubility at 50 ± 1° C.): 10 µg/mL (≈ 0.0233 mM)
Relative stability of polymorphic forms [3]: most stable polymorphic form
solubility ([2]; 1-Propanol, 23 °C, organic solvent or mixture, thermodynamic from solid, 1-Propanol, read-out: Solubility at 23 ± 1° C.): 1720 µg/mL (≈ 4.01 mM)
solubility ([2]; 2-methoxyethanol, 23 °C, organic solvent or mixture, thermodynamic from solid, 2-Methoxyethanol, read-out: Solubility at 23 ± 1° C.): 20200 µg/mL (≈ 47 mM)
solubility ([2]; Acetone/water (1:1), 23 °C, aqueous with cosolvent or surfactant or cyclodextrin, thermodynamic from solid, Acetone/water (1:1), read-out: Solubility at 23 ± 1° C.): 3970 µg/mL (≈ 9.24 mM)
solubility ([2]; Acetone/water (1:2), 23 °C, aqueous with cosolvent or surfactant or cyclodextrin, thermodynamic from solid, Acetone/water (1:2), read-out: Solubility at 23 ± 1° C.): 860 µg/mL (≈ 2 mM)
solubility ([2]; Acetone/water (1:4), 23 °C, aqueous with cosolvent or surfactant or cyclodextrin, thermodynamic from solid, Acetone/water (1:4), read-out: Solubility at 23 ± 1° C.): 170 µg/mL (≈ 0.396 mM)
solubility ([2]; Acetone/water (2:1), 23 °C, aqueous with cosolvent or surfactant or cyclodextrin, thermodynamic from solid, Acetone/water (2:1), read-out: Solubility at 23 ± 1° C.): 12500 µg/mL (≈ 29 mM)
solubility ([2]; Acetone/water (4:1), 23 °C, aqueous with cosolvent or surfactant or cyclodextrin, thermodynamic from solid, Acetone/water (4:1), read-out: Solubility at 23 ± 1° C.): 19400 µg/mL (≈ 45.2 mM)
solubility ([2]; DCM/MeOH (1:1), 23 °C, organic solvent or mixture, thermodynamic from solid, DCM/MeOH (1:1), read-out: Solubility at 23 ± 1° C.): > 50000 µg/mL
solubility ([2]; DMF, 23 °C, organic solvent or mixture, thermodynamic from solid, DMF, read-out: Solubility at 23 ± 1° C.): > 50000 µg/mL
solubility ([2]; DMSO, 23 °C, organic solvent or mixture, thermodynamic from solid, DMSO, read-out: Solubility at 23 ± 1° C.): > 50000 µg/mL
solubility ([2]; DMSO, DMF, DCM/MeOH (1:1), THF/water (4:1), 23 °C, organic solvent or mixture, thermodynamic from solid, at 23° C. in DMSO, DMF, DCM/MeOH (1:1), and THF/water (4:1), read-out: Solubility (completely soluble)): > 50000 µg/mL
solubility ([2]; Dichloromethane, 23 °C, organic solvent or mixture, thermodynamic from solid, Dichloromethane, read-out: Solubility at 23 ± 1° C.): 12400 µg/mL (≈ 29 mM)
solubility ([2]; EtOAc, 23 °C, organic solvent or mixture, thermodynamic from solid, EtOAc, read-out: Solubility at 23 ± 1° C.): 890 µg/mL (≈ 2.07 mM)
solubility ([2]; EtOH, 23 °C, organic solvent or mixture, thermodynamic from solid, EtOH, read-out: Solubility at 23 ± 1° C.): 2010 µg/mL (≈ 4.68 mM)
solubility ([2]; IPA, 23 °C, organic solvent or mixture, thermodynamic from solid, IPA, read-out: Solubility at 23 ± 1° C.): 900 µg/mL (≈ 2.1 mM)
solubility ([2]; IPAc, 23 °C, organic solvent or mixture, thermodynamic from solid, IPAc, read-out: Solubility at 23 ± 1° C.): 440 µg/mL (≈ 1.02 mM)
solubility ([2]; MEK, 23 °C, organic solvent or mixture, thermodynamic from solid, MEK, read-out: Solubility at 23 ± 1° C.): 3580 µg/mL (≈ 8.34 mM)
solubility ([2]; MIBK, 23 °C, organic solvent or mixture, thermodynamic from solid, MIBK, read-out: Solubility at 23 ± 1° C.): 910 µg/mL (≈ 2.12 mM)
solubility ([2]; MeCN, 23 °C, organic solvent or mixture, thermodynamic from solid, MeCN, read-out: Solubility at 23 ± 1° C.): 4590 µg/mL (≈ 10.7 mM)
solubility ([2]; THF, 23 °C, organic solvent or mixture, thermodynamic from solid, THF, read-out: Solubility at 23 ± 1° C.): 3770 µg/mL (≈ 8.78 mM)
solubility ([2]; THF/water (4:1), 23 °C, organic solvent or mixture, thermodynamic from solid, THF/water (4:1), read-out: Solubility at 23 ± 1° C.): > 50000 µg/mL
solubility ([2]; acetone, 23 °C, organic solvent or mixture, thermodynamic from solid, Acetone, read-out: Solubility at 23 ± 1° C.): 5100 µg/mL (≈ 11.9 mM)
Solubility (slightly soluble) ([2]; at 23° C. in MeCN, 1,4-dioxane, MeOH, 2-methoxyethanol, THF, acetone, n-BuOH, EtOH, ethyl formate, 1-propanol, MEK, acetone water (2:1), acetone water (1:1), chloroform and dichloromethane): 1000 to 50000 µg/mL
solubility ([2]; ethyl formate, 23 °C, organic solvent or mixture, thermodynamic from solid, Ethyl formate, read-out: Solubility at 23 ± 1° C.): 2200 µg/mL (≈ 5.12 mM)
solubility ([2]; isobutyl acetate, 23 °C, organic solvent or mixture, thermodynamic from solid, Isobutyl acetate, read-out: Solubility at 23 ± 1° C.): 280 µg/mL (≈ 0.652 mM)
solubility ([2]; methanol, 23 °C, organic solvent or mixture, thermodynamic from solid, Methanol, read-out: Solubility at 23 ± 1° C.): 5350 µg/mL (≈ 12.5 mM)
solubility ([2]; n-BuOH, 23 °C, organic solvent or mixture, thermodynamic from solid, n-BuOH, read-out: Solubility at 23 ± 1° C.): 1180 µg/mL (≈ 2.75 mM)
solubility ([2]; organic solvent or mixture, thermodynamic from solid, at 23° C. in heptane, hexane, toluene, MTBE, isobutyl acetate, IPAc, water, acetone water (1:4), MIBK, EtOAc, IPA, and acetone water (1:2), read-out: Solubility (insoluble)): < 1000 µg/mL
solubility ([2]; water, 23 °C, water, thermodynamic from solid, Water, read-out: Solubility at 23 ± 1° C.): 10 µg/mL (≈ 0.0233 mM)
Structure (SMILES): C=CC(=O)NCc1cc2c(cn1)CN(c1c(F)c(OC)cc(OC)c1F)C(=O)C21CC1 [Compound 1 Form I, N-((2′-(2,6-difluoro-3,5-dimethoxyphenyl)-3′-oxo-2′,3′-dihydro-1′H-spiro[cyclopropane-1,4′-[2,7]naphthyridine]-6′-yl)methyl)acrylamide]

solubility ([1]; toluene, 50 °C, organic solvent or mixture, thermodynamic from solid, Toluene, read-out: Solubility at 50 ± 1° C.): 170 µg/mL (≈ 0.396 mM)
solubility ([2]; toluene, 23 °C, organic solvent or mixture, thermodynamic from solid, Toluene, read-out: Solubility at 23 ± 1° C.): 150 µg/mL (≈ 0.349 mM)
Structure (SMILES): C=CC(=O)NCc1cc2c(cn1)CN(c1c(F)c(OC)cc(OC)c1F)C(=O)C21CC1 [Form IV]

solubility ([1]; Chloroform, 50 °C, organic solvent or mixture, thermodynamic from solid, Chloroform, read-out: Solubility at 50 ± 1° C.): > 50000 µg/mL
solubility ([2]; Chloroform, 23 °C, organic solvent or mixture, thermodynamic from solid, Chloroform, read-out: Solubility at 23 ± 1° C.): 26700 µg/mL (≈ 62.1 mM)
Structure (SMILES): C=CC(=O)NCc1cc2c(cn1)CN(c1c(F)c(OC)cc(OC)c1F)C(=O)C21CC1 [Form II]
